Laboratory results taken from publication PMC8857485, “Prostate secretory protein 94 inhibits sterol binding and export by the mammalian CAP protein CRISP2 in a calcium-sensitive manner” (The Journal of Biological Chemistry, 2022).

Columns and labels:
PSP94 = target: T1, PSP94 (Homo sapiens, UniProt P08118); assay: MST binding to PSP94; settings: calcium chloride titration
T1 construct: made in house; host or cells: E. coli BL21
Experimental: To test whether the interaction between PSP94 and CAP family members affects their sterol binding in vitro, we performed ligand binding assays using a more water-soluble cholesterol derivative, cholesterol sulfate. […] In the presence of an equimolar concentration of PSP94, however, sterol binding by the CAP proteins was blocked (Fig. 3B).
MST experiments were performed to assess protein–protein, protein–lipid, and protein–calcium interactions using a Monolith NT.115 (Nanotemper Technologies). Proteins were labeled using the RED-tris-NTA His tag protein labeling kit. Labeled CAP proteins, 100 nM, were mixed with a serial dilution of unlabeled PSP94, PSP9^F24G, cholesterol sulfate, or calcium chloride, prepared in binding buffer (20 mM Tris pH 7.5, 30 mM NaCl, 0.05% Triton X-100). Samples were loaded into MST standard capillaries, and MST measurements were performed using an 80% laser power setting. The dissociation constant Kd was obtained by plotting the normalized fluorescence (Fnorm) against the logarithm of ligand concentration. Experiments were performed in triplicates, and data were fitted using the Kd model of the MO.Affinity Analysis software (Nanotemper Technologies). For binding inhibition studies, CAP proteins and PSP94 were preincubated for 5 min at 24 °C before performing binding studies with cholesterol sulfate.

[1] = target: T2, CRISP2–PSP94 heteromeric complex (Homo sapiens, UniProt P16562); assay: Coimmunoprecipitation of PSP94-FLAG with CRISP2-HA from culture medium; type: cell-based, Saccharomyces cerevisiae
T2 construct: expressed in transfected cells; host or cells: Saccharomyces cerevisiae, plasmids pRS416 (CRISP2) and pRS414 (PSP94), ADH1 promoter
Experimental: To test whether calcium also affects the formation of the heteromeric complex in vivo, we analyzed complex formation by coimmunoprecipitation. Cells expressing CRISP2-HA and PSP94-FLAG were cultivated in the absence or presence of calcium (5 and 10 mM CaCl2), CRISP2-HA was immunoprecipitated from the culture medium, and Western blots were probed for the presence of PSP94-FLAG.
For Coimmunoprecipitation analysis, CRISP2 wildtype and mutant versions were tagged with an HA epitope tag, and wildtype PSP94 and the PSP94^F24G mutant version were fused to a FLAG tag. Yeast strains expressing these proteins were grown overnight and collected by centrifugation. The cell pellet was resuspended in lysis buffer (50 mM Tris-HCl pH 7.5, 100 mM NaCl, 0.1% NP-40, 10% glycerol, protease inhibitor, and 1 mM PMSF), and cells were broken with glass beads in a Precellys homogenizer. The culture medium was concentrated using size-exclusion protein concentrator spin columns (3K MWCO, Pierce, Thermo Scientific). Protein concentration was estimated by Bradford assay (Bio-Rad), and both the cell lysate and concentrated culture medium were incubated overnight at 4 °C with anti-HA magnetic beads (Pierce, Thermo Scientific). […] Samples were denatured for 10 min at 95 °C and analyzed by SDS-PAGE and Western blotting. […]

[2] = tested on: sterol export by CAP proteins (Pry1, CRISP2, CRISP3); assay: In vivo sterol export assay ([14C]cholesteryl acetate export) in yeast; type: cell-based, Saccharomyces cerevisiae; settings: 10 mM calcium in medium, cells expressing CRISP2 and PSP94
Source text: To test whether expression of PSP94 would affect the function of Pry1 in sterol export, we expressed PSP94 fused to the N-terminal signal sequence from Pry1 (amino acids 1–19) from a constitutive alcohol dehydrogenase promoter (ADH1) to direct the protein into the yeast secretory pathway. This PSP94-containing plasmid was then transformed into heme-deficient yeast cells lacking the sterol deacetylase Say1 (hem1Δ say1Δ). This strain is able to take up radiolabeled [^14C]cholesterol, acetylate it in an alcohol acetyltransferase 2 (Atf2)-dependent pathway, and secrete the resulting radiolabeled cholesteryl acetate back into the culture medium ([29]). […] To test whether expression of PSP94 would affect the synthesis or secretion of Pry1, CRISP2, or CRISP3, we coexpressed FLAG-tagged PSP94 with hemagglutinin (HA)-tagged Pry1, CRISP2, or CRISP3, separated yeast cells from the culture medium, precipitated proteins from both fractions with trichloroacetic acid (TCA), and detected the tagged proteins by Western blotting.
The sterol export assay was performed as described ([29]). […] Extracted radiolabeled lipids were quantified by scintillation counting, and volumes corresponding to 10,000 cpm (counts per minute) were dried. […] TLC plates were then exposed to phosphorimager screens, and radiolabeled lipids were visualized and quantified using a phosphorimager. […]

CRISP2 = target: T3, CRISP2 (Homo sapiens, UniProt P16562); assay: MST binding to CRISP2; set-up: species or system mammalian; settings: calcium chloride titration, read-out: Kd, calcium binding by CRISP2
T3 construct: made in house; host or cells: E. coli BL21
T3 sequence (P16562 22-243): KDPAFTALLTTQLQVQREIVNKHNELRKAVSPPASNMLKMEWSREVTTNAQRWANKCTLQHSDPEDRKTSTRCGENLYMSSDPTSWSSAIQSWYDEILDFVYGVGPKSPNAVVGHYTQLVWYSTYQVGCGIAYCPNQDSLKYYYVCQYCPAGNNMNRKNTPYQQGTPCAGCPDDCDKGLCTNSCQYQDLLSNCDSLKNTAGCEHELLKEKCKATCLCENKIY
Source text: To confirm the direct interaction of PSP94 with CRISP3 and to test whether PSP94 would also bind other CAP family members such as yeast Pry1, or CRISP2, we performed in vitro protein binding assay using microscale thermophoresis (MST). Therefore, PSP94 and the CAP family members, Pry1, CRISP2, and CRISP3, were expressed as fusion proteins with a C-terminal polyhistidine tag in Escherichia coli, and the proteins were affinity purified on nickel-NTA agarose beads. The purified CAP proteins were then fluorescently labeled using RED-tris-NTA and incubated with varying concentrations of PSP94. […] PSP94 thus has high binding affinity for all three CAP proteins tested, and it also binds the CAP domain of Pry1 (Pry1^CAP) alone.
DNA encoding proteins of interest were PCR amplified and cloned into NcoI and XhoI restriction sites of pET22b, which contains a PelB signal sequence to direct the secretion of expressed protein into the periplasmic space. Plasmids were transformed into E. coli BL21, and proteins were expressed with a C-terminal polyhistidine tag. Different induction strategies were used: overnight induction with lactose at 24 °C for Pry1, CRISP2, and PSP94 and 6 h of induction with 0.4 mM IPTG at 24 °C for the CAP domain of Pry1. Cells were collected and lysed, and the soluble cell lysate was incubated with nickel-nitrilotriacetic acid beads as per the manufacturer instructions (Qiagen). Beads were washed and loaded onto a Ni^2+-NTA column, and proteins were eluted with a buffer containing 60 mM NaH2PO4, 300 mM NaCl, and 300 mM imidazole, pH 8.0. […] Protein concentration was determined by Lowry assay using the Folin reagent and bovine serum albumin as protein standard.
MST experiments were performed to assess protein–protein, protein–lipid, and protein–calcium interactions using a Monolith NT.115 (Nanotemper Technologies). […] The dissociation constant Kd was obtained by plotting the normalized fluorescence (Fnorm) against the logarithm of ligand concentration. […]

T1 sequence (P08118 21-114): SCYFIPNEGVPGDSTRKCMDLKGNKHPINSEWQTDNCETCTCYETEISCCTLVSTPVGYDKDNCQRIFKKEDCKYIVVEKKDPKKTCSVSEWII

In the case of `[Ca+2]` [calcium, calcium chloride], the Kd (PSP94) is reported as 376 ± 1.7 µM, the “complex formation between CRISP2 and PSP94” value ([1]; cells grown in 5 mM calcium) is reported as “reduced” and the “complex formation between CRISP2 and PSP94” value ([1]; cells grown in 10 mM calcium) is reported as “could no longer be detected”. For the same compound, the “effect on sterol export by CRISP2 in the presence of PSP94” value [2] was “restored sterol binding and export by CRISP2” and the Kd (CRISP2) was 0.052 ± 0.0009 µM.
